Source: article PMC9186491, “Novel Small Molecule Tyrosine Kinase 2 Pseudokinase Ligands Block Cytokine-Induced TYK2-Mediated Signaling Pathways” (Frontiers in Immunology, 2022)
≈ marks a conversion by molar mass, not a printed value. Like-named read-outs stand apart in the source and are kept apart here.

How the values were obtained:
[1] = PPB, H; type: in vitro ADME; conditions: human, plasma
[2] = LM T1/2, H; type: in vitro ADME; conditions: human, liver microsomes
[3] = LM T1/2, Mk; type: in vitro ADME; conditions: monkey, liver microsomes
[4] = biological target: T1, JAK2 JH1 kinase domain (Homo sapiens, UniProt O60674); test: KdELECT competition binding assay, JAK2 JH1; conditions: read-out: JAK Binding Selectivity (Kd) Catalytical Domain (JH1) JAK2
T1 construct: purchased Eurofins DiscoverX Corporation (contract assay)
T1 sequence (O60674 849-1124 limits assumed): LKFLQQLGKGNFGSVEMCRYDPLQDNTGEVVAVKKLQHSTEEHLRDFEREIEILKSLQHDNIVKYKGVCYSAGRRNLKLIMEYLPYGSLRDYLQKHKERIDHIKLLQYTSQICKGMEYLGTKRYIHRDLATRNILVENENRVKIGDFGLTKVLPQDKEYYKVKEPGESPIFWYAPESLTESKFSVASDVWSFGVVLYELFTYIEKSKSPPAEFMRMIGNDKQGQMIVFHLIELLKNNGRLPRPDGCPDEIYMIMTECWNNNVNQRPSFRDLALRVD
Experimental: The KdELECT competition assays were performed to test the binding affinity of compounds to the JH1 kinase region or JH2 pseudokinase region in TYK2 or JAK by ligand competition with JH1 or JH2 protein segments. The assay was carried out at Eurofins DiscoverX Corporation following the established standard protocol (DiscoverX, San Diego, CA). In this assay, compounds that bind to the kinase or pseudokinase protein regions prevent the protein binding to the immobilized ligand and reduce the amount of kinase matter captured on the solid surface. […] Dissociation constants (Kds) for test compound-kinase interactions are calculated by measuring the amount of kinase captured on the solid support as a function of the test compound concentration. […] The ligated beads were blocked with excess biotin and washed with blocking buffer to remove unbound ligand and to reduce nonspecific binding. […] All reactions were performed in polypropylene 384-well plates with a final volume of 20 μL. […] The beads were then re-suspended in the elution buffer and incubated at room temperature with shaking for 30 minutes. The kinase concentration in the eluant was measured by qPCR. Two replicates were performed and averaged to obtain the Kd measurement.

[5] = LM T1/2, D; type: in vitro ADME; conditions: dog, liver microsomes
[6] = test system: IFNα-induced TYK2/phosphoSTAT1 (Tyr701) in Kit225 T cells; test: Kit225 T cell assay for IFNα-induced TYK2/phosphoSTAT1 activity; type: cell-based, human; conditions: Homo sapiens; Kit225 cells, 80 ng/mL IFNα, AlphaLISA; read-out: IC50 IFNα-induced-STAT1 Phosphorylation
Experimental: The cells were treated with serially diluted compounds for 1 hour and stimulated with 80 ng/mL human recombinant IFNα (R&D Systems) for 15 minutes. The treated cells were then lysed and cellular phosphorylated-STAT1 (Tyr701) levels were measured by AlphaLISA (PerkinElmer, Cat#ALSU-PST1) according to the manufacturer’s instructions.

[7] = biological target: JAK1 (Homo sapiens, UniProt P23458); test: Z'LYTE JAK kinase inhibition assay, JAK1; type: biochemical; conditions: read-out: JAK Catalytic Selectivity (IC50) JAK1
Sequence of JAK1 (P23458 whole entry): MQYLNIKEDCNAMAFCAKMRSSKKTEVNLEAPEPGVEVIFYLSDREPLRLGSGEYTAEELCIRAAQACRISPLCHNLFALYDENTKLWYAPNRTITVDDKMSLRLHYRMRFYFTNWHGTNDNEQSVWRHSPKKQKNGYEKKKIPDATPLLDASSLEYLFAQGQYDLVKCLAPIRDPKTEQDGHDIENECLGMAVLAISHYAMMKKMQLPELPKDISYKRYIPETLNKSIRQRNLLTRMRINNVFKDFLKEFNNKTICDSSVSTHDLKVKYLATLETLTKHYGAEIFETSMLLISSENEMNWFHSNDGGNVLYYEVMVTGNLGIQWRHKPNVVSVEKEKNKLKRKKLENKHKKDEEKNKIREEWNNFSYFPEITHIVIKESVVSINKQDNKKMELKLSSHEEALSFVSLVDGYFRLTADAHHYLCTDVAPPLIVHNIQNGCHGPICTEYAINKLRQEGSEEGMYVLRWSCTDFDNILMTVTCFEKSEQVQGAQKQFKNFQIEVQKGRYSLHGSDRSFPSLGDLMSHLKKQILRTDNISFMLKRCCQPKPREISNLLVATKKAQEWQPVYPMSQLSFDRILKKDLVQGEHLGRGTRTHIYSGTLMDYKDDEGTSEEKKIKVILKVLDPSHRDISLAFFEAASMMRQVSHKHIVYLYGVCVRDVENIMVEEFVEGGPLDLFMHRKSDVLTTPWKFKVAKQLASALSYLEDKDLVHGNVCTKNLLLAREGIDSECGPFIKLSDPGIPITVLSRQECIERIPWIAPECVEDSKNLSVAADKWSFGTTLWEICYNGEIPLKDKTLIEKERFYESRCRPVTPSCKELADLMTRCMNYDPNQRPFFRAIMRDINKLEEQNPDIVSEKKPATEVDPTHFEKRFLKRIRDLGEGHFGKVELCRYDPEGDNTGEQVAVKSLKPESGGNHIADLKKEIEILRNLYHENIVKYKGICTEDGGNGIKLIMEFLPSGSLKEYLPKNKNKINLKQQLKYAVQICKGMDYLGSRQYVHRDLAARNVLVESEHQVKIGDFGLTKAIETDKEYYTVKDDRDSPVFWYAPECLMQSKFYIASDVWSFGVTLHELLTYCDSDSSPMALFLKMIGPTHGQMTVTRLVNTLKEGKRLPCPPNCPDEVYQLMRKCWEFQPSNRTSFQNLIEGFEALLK

[8] = test system: JAK1-dependent IL6-induced phosphorylation of STAT3 (Tyr705) in TF1 cells; test: JAK cellular selectivity assay, IL6-pSTAT3 (JAK1); type: cell-based; conditions: Homo sapiens, TF-1; TF1 cells; read-out: JAK Cellular Selectivity (IC50) IL6-pSTAT3 (JAK1)
Experimental: The cells were then ready for the assay after incubating for 2 hours in a humidified, 5% CO2 cell culture incubator at 37°C. […] The curve fit was generated, and statistical analysis was performed using GraphPad Prism. IC50 values were derived by non-linear regression analysis and defined as the compound concentration at which the response level was reduced to half of its maximum relative to a DMSO control.

[9] = biological target: CYP450 3A4 (Homo sapiens, UniProt P08684); test: CYP450 inhibition, 3A4; type: in vitro ADME
Sequence of CYP450 3A4 (P08684 whole entry): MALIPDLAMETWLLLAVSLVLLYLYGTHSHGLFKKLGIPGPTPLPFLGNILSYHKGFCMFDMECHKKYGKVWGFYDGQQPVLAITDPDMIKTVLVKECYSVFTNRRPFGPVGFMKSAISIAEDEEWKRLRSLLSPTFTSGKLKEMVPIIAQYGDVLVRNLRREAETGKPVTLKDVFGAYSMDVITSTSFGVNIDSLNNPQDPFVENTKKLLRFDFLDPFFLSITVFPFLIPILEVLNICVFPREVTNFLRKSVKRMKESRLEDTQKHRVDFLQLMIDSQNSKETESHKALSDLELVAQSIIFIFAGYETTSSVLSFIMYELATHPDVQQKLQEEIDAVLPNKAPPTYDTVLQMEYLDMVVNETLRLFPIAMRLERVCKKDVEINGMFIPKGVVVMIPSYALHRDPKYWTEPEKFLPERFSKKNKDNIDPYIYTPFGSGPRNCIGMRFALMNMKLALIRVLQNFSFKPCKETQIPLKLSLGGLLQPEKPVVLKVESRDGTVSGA

[10] = biological target: JAK2 (Homo sapiens, UniProt O60674); test: Z'LYTE JAK kinase inhibition assay, JAK2; type: biochemical; conditions: read-out: JAK Catalytic Selectivity (IC50) JAK2
Sequence of JAK2 (O60674 whole entry): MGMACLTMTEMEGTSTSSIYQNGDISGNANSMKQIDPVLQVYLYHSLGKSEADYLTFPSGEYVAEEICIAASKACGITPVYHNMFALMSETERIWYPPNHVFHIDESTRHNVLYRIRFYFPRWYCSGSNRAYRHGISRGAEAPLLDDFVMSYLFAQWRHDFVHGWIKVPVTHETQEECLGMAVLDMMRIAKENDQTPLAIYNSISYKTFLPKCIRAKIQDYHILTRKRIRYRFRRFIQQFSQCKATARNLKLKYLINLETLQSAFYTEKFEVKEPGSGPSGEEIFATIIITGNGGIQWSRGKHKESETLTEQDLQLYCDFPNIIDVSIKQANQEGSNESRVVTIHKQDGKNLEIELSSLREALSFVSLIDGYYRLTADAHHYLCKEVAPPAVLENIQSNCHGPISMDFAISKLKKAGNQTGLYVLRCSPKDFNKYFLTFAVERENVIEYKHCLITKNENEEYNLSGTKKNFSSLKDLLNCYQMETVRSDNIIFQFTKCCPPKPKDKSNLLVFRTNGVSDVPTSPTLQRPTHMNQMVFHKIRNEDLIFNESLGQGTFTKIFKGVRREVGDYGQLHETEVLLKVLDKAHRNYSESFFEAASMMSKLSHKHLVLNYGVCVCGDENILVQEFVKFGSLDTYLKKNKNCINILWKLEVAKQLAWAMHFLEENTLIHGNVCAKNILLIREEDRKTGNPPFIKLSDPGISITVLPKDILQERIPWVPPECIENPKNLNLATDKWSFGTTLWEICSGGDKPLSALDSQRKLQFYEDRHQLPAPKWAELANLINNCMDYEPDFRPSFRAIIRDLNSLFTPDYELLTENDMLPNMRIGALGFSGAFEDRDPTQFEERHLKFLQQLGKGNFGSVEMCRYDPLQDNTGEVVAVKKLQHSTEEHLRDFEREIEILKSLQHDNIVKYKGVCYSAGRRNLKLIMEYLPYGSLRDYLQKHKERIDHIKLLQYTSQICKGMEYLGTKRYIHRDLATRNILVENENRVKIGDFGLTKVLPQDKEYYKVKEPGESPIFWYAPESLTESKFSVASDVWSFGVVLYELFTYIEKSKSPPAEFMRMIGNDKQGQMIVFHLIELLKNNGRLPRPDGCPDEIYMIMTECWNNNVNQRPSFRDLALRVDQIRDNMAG

[11] = biological target: T2, JAK3 (Homo sapiens, UniProt P52333); test: Z'LYTE JAK kinase inhibition assay, JAK3; type: biochemical; conditions: read-out: JAK Catalytic Selectivity (IC50) JAK3
T2 sequence (P52333 1-1124): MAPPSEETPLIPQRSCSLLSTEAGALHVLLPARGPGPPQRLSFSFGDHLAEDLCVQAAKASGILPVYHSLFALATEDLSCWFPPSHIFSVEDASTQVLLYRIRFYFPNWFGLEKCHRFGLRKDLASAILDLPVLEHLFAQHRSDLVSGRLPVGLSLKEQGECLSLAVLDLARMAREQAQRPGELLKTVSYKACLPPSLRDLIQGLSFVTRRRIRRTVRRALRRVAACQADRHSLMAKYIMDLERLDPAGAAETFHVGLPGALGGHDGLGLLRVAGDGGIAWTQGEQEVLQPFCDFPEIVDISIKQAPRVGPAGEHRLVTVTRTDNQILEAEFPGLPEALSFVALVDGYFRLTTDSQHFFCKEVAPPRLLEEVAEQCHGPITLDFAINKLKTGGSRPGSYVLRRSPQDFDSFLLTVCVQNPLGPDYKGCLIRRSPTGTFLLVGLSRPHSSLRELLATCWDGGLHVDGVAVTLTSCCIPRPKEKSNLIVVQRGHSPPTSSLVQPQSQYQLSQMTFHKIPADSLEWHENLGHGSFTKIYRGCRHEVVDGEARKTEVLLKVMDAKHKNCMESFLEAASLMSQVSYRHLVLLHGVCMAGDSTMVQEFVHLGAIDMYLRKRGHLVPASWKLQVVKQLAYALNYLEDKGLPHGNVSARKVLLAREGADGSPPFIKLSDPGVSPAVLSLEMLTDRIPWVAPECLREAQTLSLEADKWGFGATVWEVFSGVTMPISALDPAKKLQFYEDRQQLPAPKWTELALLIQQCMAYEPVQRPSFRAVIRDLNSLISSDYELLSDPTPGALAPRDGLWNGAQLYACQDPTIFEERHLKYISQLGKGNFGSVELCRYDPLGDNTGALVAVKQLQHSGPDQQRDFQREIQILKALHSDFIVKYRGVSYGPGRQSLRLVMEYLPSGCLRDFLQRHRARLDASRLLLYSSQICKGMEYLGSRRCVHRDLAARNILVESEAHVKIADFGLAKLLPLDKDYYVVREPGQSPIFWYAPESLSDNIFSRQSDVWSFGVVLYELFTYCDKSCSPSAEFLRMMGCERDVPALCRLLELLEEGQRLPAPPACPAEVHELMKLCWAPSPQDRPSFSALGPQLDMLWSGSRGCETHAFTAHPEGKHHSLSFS

[12] = Solubility (PBS/Fas/Fes); type: physicochemical
[13] = PPB, D; type: in vitro ADME; conditions: dog, plasma
[14] = 3A4(m), read-out: CYP450 3A4(m)
[15] = 3A4(t), read-out: CYP450 3A4(t)
[16] = FaSSIF, read-out: Solubility, Fas
[17] = FeSSIF (Fes [sic]), fessif, read-out: Solubility, Fes
[18] = PBS, aqueous buffer, read-out: Solubility, PBS

| Structure (SMILES) | fraction unbound [1] | half-life [2] [min] | half-life [3] [min] | Kd [4] [µM] | half-life [5] [min] | IC50 [6] [µM] | IC50 [7] [µM] | IC50 [8] [µM] | IC50 [9, 14] [µM] | IC50 [9, 15] [µM] | IC50 [10] [µM] | IC50 [11] [µM] | solubility [12, 16] [µM] | solubility [12, 17] [µM] | solubility [12, 18] [µM] | fraction unbound [13] |
| --- | --- | --- | --- | --- | --- | --- | --- | --- | --- | --- | --- | --- | --- | --- | --- | --- |
| CNC(=O)c1nnc(NC(=O)N2CCC2)cc1Nc1cccc(-c2ncn(C)n2)c1OC [SHR8751] | 0.402 | > 139 | > 99 | 6.5 ± 1.7 | > 139 | 0.037 | > 10 | 5.8 ± 3.7 | > 30 | > 30 | > 10 | > 10 | 60.7 (≈ 26.6 µg/mL) | 60.9 (≈ 26.6 µg/mL) | 17.6 (≈ 7.7 µg/mL) | 0.377 |
| [2H]C([2H])([2H])NC(=O)c1nnc(NC(=O)N2CCC2)cc1Nc1cccc(-c2ncn(C)n2)c1OC [SHR9332] | 0.274 | 47.5 | 30.9 | 2 | 46.5 | 0.076 | > 10 | 2.8 ± 1.7 | > 30 | > 30 | > 10 | > 10 | 71.4 (≈ 31.5 µg/mL) | 108 (≈ 47.6 µg/mL) | 25.6 (≈ 11.3 µg/mL) | 0.325 |
| CNC(=O)c1nnc(NC(=O)C2CC2)c2[nH]c(-c3ccc(N)cc3OC)cc12 [SHR2396] | 0.0258 | > 139 | 50 | > 20 | > 139 | 0.015 | > 10 | 0.15 ± 0.059 | > 30 | > 30 | > 10 | > 10 | 8.6 (≈ 3.27 µg/mL) | 8.2 (≈ 3.12 µg/mL) | 0.34 (≈ 0.129 µg/mL) | 0.0434 |
